Assay results as given in patent US9708305B2, “Substituted 1,2,3,4-tetrahydroisoquinoline derivatives for the treatment of hormone-dependent diseases” (UNIVERSITÉ LAVAL, priority 2013, dated 2017).

Legend:
steroid sulfatase (STS) = target: T1, steroid sulfatase (STS) (Homo sapiens, UniProt P08842); assay: Steroid sulfatase (STS) inhibition, [3H]-E1S to [3H]-E1, homogenate of transfected HEK-293 cells; assay type: biochemical; conditions: transformation of E1S into E1 in homogenate of HEK-293 cells transfected with STS; read-out: Steroid Sulfatase Inhibition IC50
T1 construct: expressed in transfected cells; host or cells: HEK-293 cells stably transfected with STS (G418 selection), obtained from Dr. Van Luu-The; used as freeze-thaw homogenate
T1 sequence (P08842 22-583): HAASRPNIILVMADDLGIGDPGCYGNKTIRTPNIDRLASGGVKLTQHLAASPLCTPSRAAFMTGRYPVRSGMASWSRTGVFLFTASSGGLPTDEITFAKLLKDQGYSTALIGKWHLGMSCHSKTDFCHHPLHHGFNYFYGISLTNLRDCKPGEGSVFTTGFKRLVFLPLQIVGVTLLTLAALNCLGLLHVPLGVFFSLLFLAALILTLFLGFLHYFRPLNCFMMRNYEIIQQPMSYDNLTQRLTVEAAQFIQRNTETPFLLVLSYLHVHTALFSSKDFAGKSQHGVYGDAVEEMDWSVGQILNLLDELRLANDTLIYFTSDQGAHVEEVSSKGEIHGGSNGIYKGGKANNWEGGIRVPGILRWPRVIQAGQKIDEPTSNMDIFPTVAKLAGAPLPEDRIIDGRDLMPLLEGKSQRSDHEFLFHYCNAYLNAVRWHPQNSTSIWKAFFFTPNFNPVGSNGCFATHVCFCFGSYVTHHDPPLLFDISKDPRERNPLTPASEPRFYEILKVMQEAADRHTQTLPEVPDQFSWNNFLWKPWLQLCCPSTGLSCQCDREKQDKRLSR
Description: To test STS inhibition, we used homogenated HEK-293 cells overexpressing STS and evaluated the capacity of our compounds to inhibit the conversion of [^3H]-E1S into [^3H]-E1. […] This is outlined in FIG. 5.
An enzymatic assay previously described was used for the inhibition of the transformation of estrone sulfate (E1S) to estrone (E1) by STS.^72 Briefly, the transfected HEK-293 cells were homogenized by repeated (5 times) cycles of freezing (−80° C.) and thawing on ice (4° C.). The homogenates were then incubated for 2 h at 37° C. (shaking water bath) with or without inhibitors (0.01 μM-1 μM) in presence of [^3H]-E1S (9 nM), adjusted to 1 μM with E1S, in a Tris-acetate buffer (pH 7.4) containing 5 mM EDTA and 10% glycerol. After the incubation, 1 mL of xylene was added to each tube and the solutions were then centrifuged at 3000 rpm for 20 min to separate the organic ([^3H]-E1) and aqueous ([^3H]-E1S) phases. Once 500 μL of each phase was added to 10 mL of Biodegradable Counting Scintillant, the radioactivity of samples was recorded using a Wallac 1411 Liquid Scintillation Counter. The percentage of inhibition was determined by comparison with the control (buffer+homogenate+[^3H]-E1S) which was set to 0% of inhibition. IC50 value was obtained using GraphPad Prism 5 (GraphPad Software, La Jolla, Calif.).

Saos-2 (ER+) cells = assay: Proliferative activity on Saos-2 (ER+) cells, phenol library; assay type: cell-based; conditions: 1 μM (stated for reference compounds); 7 days; control 100%
Description: Estrogens are known to have a beneficial effect on bones. […] The phenol derivatives 3′-EO-09 to 3′-EO-11 and 3′-EO-14 to 3′-EO-17 were tested on the osteoblast-like cell line Saos-2 to further evaluate their SERM capacity (FIG. 13A).
The osteoblast-like Saos-2 cells were maintained in culture flasks (175 cm^2 growth area, BD Falcon) at 37° C. in a 5% CO2 humidified atmosphere and grown in McCoy's 5A medium supplemented with 10% fetal bovine serum (FBS), penicillin (100 IU/mL) and streptomycin (100 μg/mL). Penicillin/streptomycin mix, L-Glutamine, normal and charcoal-stripped FBS were purchased from Wisent, Inc. (St-Bruno, QC, Canada), phenol-red free McCoy's 5A was purchased from PromoCell (Heidelberg, Germany). Chemicals tested were first dissolved in DMSO and subsequent dilutions were done in the cell culture medium. The final concentration of DMSO in the culture medium was 0.1% or less. For the proliferation assay, the […] FBS in the culture medium was replaced with 10% charcoal-stripped FBS. The cells were seeded in 96-well plates at a density of 10 000 cells/well and allowed to attach 24 h. After 24 h, the phenolic compounds diluted in culture medium were added to the wells and replaced every 2 days for 7 days of treatment. As reported above, MTS was used as an indirect colorimetric measurement of cell proliferation according to the manufacturer's instructions, except the plate were incubated 2 h instead of 4 h.

## C[C@]12CC[C@@H]3c4ccc(O)cc4CC[C@H]3[C@@H]1CC[C@@H]2O [E2, 17β-estradiol, reference compound]
Steroid sulfatase (STS)
  IC50: > 1000 nM
Saos-2 (ER+) cells
  proliferation of Saos-2 cells: 144%
